{"source": "patent US8377913B2", "about": "“Vitamin D receptor activators and methods of making” (AbbVie Inc., priority 2007, dated 2013)", "key": {"[1]": {"test_system": "PAI-1 mRNA in human coronary artery smooth muscle cells (CASMC)", "experiment": "PAI-1 mRNA in CASMC", "type": "cell-based", "settings": "Homo sapiens", "description": "(§1) Primary culture of human coronary artery smooth muscle cells (CASMC) (commercially available from Cambrex, Walkersville, Md.) were grown in smooth muscle growth medium SmGM-2 (commercially available from Lonza Bioscience) containing 5.5 mM glucose, 5% FBS, 50 μg/ml gentamicin, 50 ng/ml amphotericin-B, 5 μg/ml insulin, 2 ng/ml human recombinant fibroblast growth factor (hFGF), and 0.5 ng/ml human recombinant epidermal growth factor (hEGF) at 37° C. in a humidified 5% CO2-95% air atmosphere. Cells were grown to >80% confluence and used within five passages.\n(§2) Real-time reverse transcription-PCR was performed with a MyiQ Real-Time PCR Detection System (BioRad, Hercules, Calif.). Each sample has a final volume of 25 μl containing 100 ng of cDNA, […] each of the forward and reverse PCR primers and […] of the TaqMan™ probe for the gene of interest (Applied Biosystems, Foster City, Calif.). Temperature conditions consisted of a step of 5 minutes at 95° C., followed by 40 cycles of 60° C. for 1 minute and 95° C. for 15 seconds. Data was collected during each extension phase of the PCR reaction and analyzed with the software package (BioRad, Hercules, Calif.). Threshold cycles were determined for each gene. […]"}, "[2]": {"test_system": "Human promyelocytic leukemia (HL60) cells", "experiment": "HL-60 Differentiation", "type": "cell-based", "settings": "HL-60, 96 h, four days incubation, NBT, absorbance 570 nm", "description": "Human promyelocytic leukemia (HL60) cells were obtained from the American Type Culture Collection (ATCC Cat. # CCL-240, Manassas, Va.). Cells were maintained in RPMI 1640 medium (commercially available from Invitrogen, Carlsbad, Calif.) containing 10% fetal bovine serum (commercially available from Invitrogen, Carlsbad, Calif.) at 37° C. with 5% CO2. Cells were passaged weekly and were not allowed to become >90% confluent. For the assay, cells were plated at 5×10^5 cells per well in 200 uL media. Test compounds were diluted in media in concentrations between 10^−6-10^−10 M and then added to the appropriate wells. Cells were then incubated for four days at 37° C. in 5% CO2 atmosphere. After incubation, media was aspirated from each well and 75 uL of NBT solution (nitroblue tetrazolinium: 200 ng/mL PMA (phorbol 12-myrystate 13-acetate) and 2 mg/ml NBT (nitroblue tetrazolium) in distilled H2O) was added to each well followed by further incubation for 2 hours at 37° C. Following incubation, 150 uL lysis buffer (225 mL dimethylformamide, 67.5 g SDS). PMA stock solution (2 mg/ml in ethanol) was added to each well and the plate was allowed to sit at room temperature for 4 hours. HL-60 cell differentiation was assayed, Effect of each compound on cell growth was examined as a function of time; absorbance in each well was measured at 570 nm."}, "5/6 NX rats": {"test_system": "5/6 NX rats", "experiment": "Study 1: serum PTH, ionized Ca++, total Ca++ and phosphorus in the 5/6 NX rat model", "type": "in vivo", "settings": "for decrease in PTH: Day 0 vs. Day 13", "description": "Study 1: The purpose of the study was to compare the effects of Example 1 on serum PTH, ionized Ca++, total Ca++ and phosphorus in the 5/6 NX rat model.\nMethods: 5/6 NX rats were fed a normal diet (Teklad 8640; 0.9% Phos. and 1.1% Ca++) for 4 weeks prior to study at 6 weeks uremia, and were maintained on this diet for the duration of the study. 5/6 NX rats were treated with vehicle and 10, 30 or 100 μg/kg of A-Example 1. Rats were dosed i.p. 3×/week for 2 weeks. Blood was collected on Days 0 and 13 for determination of concentrations of PTH, ionized Ca++, total Ca++ and phosphorus."}, "[3]": {"test_system": "Renin mRNA in As4.1 cells", "experiment": "Renin mRNA in As4.1 cells transfected with pcDNA-hVDR (real-time RT-PCR)", "type": "cell-based", "description": "As4.1 cells (ATCC, Manassas, Va.) were cultured in Dulbecco's Modified Eagle Medium DMEM (commercially available from Invitrogen, Carlsbad, Calif.) with 10% fetal bovine serum at 37° C. in a humidified 5% CO2-95% air atmosphere. C3;ells were transfected with the pcDNA-hVDR plasmid (provided by Yan Chun Li, University of Chicago) by LIPOFECTAMINE™ 2000 (Invitrogen, Carlsbad, Calif.). siRNA was transfected with the pcDNA-hVDR plasmid by LIPOFECTAMINE™ 2000 according to the manufacturer's protocol. Twenty-four hours after transfection, cells were treated with test agents.\nReal-time reverse transcription-PCR was performed with a MyiQ Real-time PCR Detection System (commercially available from BioRad, Hercules, Calif.). […] TaqMan™ probes that were 5′ labeled with the reporter 6-carboxyfluorescein (FAM) and 3′ labeled with the quencher tetramethylrhodamine (TAMRA) were used and the primer and probe sets were obtained from Applied Biosystems (Foster City, Calif.). Temperature conditions consisted of a step of 5 minutes at 95° C., followed by 45 cycles of 60° C. for 1 minute and 95° C. for 15 seconds. Data was collected during each extension phase of the PCR reaction and analyzed with the accompanying software package (BioRad, Hercules, Calif.). Threshold cycles were determined for each gene."}, "[4]": {"test_system": "Thrombospondin mRNA in human coronary artery smooth muscle cells (CASMC)", "experiment": "Thrombospondin mRNA in CASMC", "type": "cell-based", "settings": "Homo sapiens", "description": "as §1, §2"}, "[5]": {"test_system": "VDR (VDRE-luciferase-reporter construct)", "experiment": "VDRE Reporter Gene Assay in HEK cells with stable expression of VDR", "type": "cell-based", "settings": "Homo sapiens, HEK293, 24 hours", "description": "Compound activity was also assessed by looking at a Vitamin D Response Element (VDRE) reporter gene assay, Human Embryonic Kidney cells (HEK cells) with a stable expression of VDR were cultured in 96-well plates at ˜4×10^5 cells/mL (100 μL/well) in DMEM medium containing 10% fetal calf serum. Cells were transfected with 0.2 μg per well of a VDRE-luciferase-reporter construct (from Y. Li, University of Chicago) and then treated with test agents at indicated concentrations for 24 hours. The luciferase activity was then measured following the manufacturer's instructions (Promega, Madison, Wis.)."}, "[6]": {"settings": "5/6 NX rats, 100 μg/kg i.p. 3×/week for 2 weeks"}}, "data": [{"compound": "C=C1[C@H](O)CC(=C/C=C2\\CCC[C@]3(C)[C@@H]([C@H](C)COC(=O)C(C)(C)C)CC[C@@H]23)C[C@H]1O", "note": "[Example 1, (2S)-2-[(1R,3R,7E, 17β)-1,3-dihydroxy-2-methylene-9,10-secoestra-5,7-dien-17-yl]propyl pivalate]", "values": [{"measurement": "IC50", "setting": "[1]", "result": 0.01, "unit": "nM"}, {"measurement": "EC50", "setting": "[2]", "result": 1.9, "unit": "nM"}, {"measurement": "decrease in PTH", "setting": "5/6 NX rats; 5/6 NX rats, 30 μg/kg i.p. 3×/week for 2 weeks", "result": 26, "unit": "%"}, {"measurement": "ionized Ca++", "setting": "5/6 NX rats; [6]", "result": "elevated"}, {"measurement": "total Ca++", "setting": "5/6 NX rats; [6]", "result": "elevated"}, {"measurement": "decrease in PTH", "setting": "5/6 NX rats; [6]", "result": 78, "unit": "%"}, {"measurement": "serum phosphorus levels", "setting": "5/6 NX rats; 5/6 NX rats, 10, 30 or 100 μg/kg i.p. 3×/week for 2 weeks", "result": "did not affect"}, {"measurement": "IC50", "setting": "[3]", "result": 0.3, "unit": "nM"}, {"measurement": "IC50", "setting": "[4]", "result": 0.004, "unit": "nM"}, {"measurement": "EC50", "setting": "[5]", "result": 0.4, "unit": "nM"}]}]}
